Key:
[1] = biological target: T1, hyperactive mutant BKCa channels (hSlo G803D/N806K) stably expressed in AD 293 cells (Homo sapiens, UniProt Q12791, G856D/N859K); assay: Cell-based fluorescence assay (FluxOR Potassium Ion Channel Assay) of BKCa channel activation; settings: compounds at 5 μM; n=3; vehicle 0.26
T1 construct: expressed in transfected cells

[2] = biological target: T1, hyperactive mutant BKCa channels (hSlo G803D/N806K) stably expressed in AD 293 cells; assay: as above; settings: 3 μM
Procedure: AD 293 cells, which are derivatives of the commonly used HEK 293 cell line and stably express hyperactive mutant BKCa channels (hSlo G803D/N806K) to sensitively detect the effect (Lee et al., 2013), were cultured in Dulbecco' modified Eagle medium (Hyclone, Logan, Utah, […]) supplemented with 10% fetal bovine serum, and selected with 1 mg/mL Geneticin (Gibco, Amarillo, TX, USA). 20,000 cells per well were seeded on a 96-well clear-bottom black plate (Corning, New York, NY, USA) coated with poly-D-lysine (Gibco). BKCa channel activity was measured using the cell-based fluorescence assay, FluxOR Potassium Ion Channel Assay (Thermo Fisher Scientific, Waltham, MA, USA). Experimental procedures were performed according to the manufacturer's instructions. The cells were treated with test compounds dissolved in assay buffer for 15 minutes. Fluorescence was measured using a FlexStation3 multimode microplate reader (Molecular Devices, Silicon Valley, CA, USA) and SoftMax Pro (Molecular Devices). Excitation and emission wavelengths were set to 485 nm and 528 nm, respectively. Fluorescence signals were acquired every 2 seconds for 120 seconds and normalized by the relative fluorescence unit (RFU). The efficacy of a channel activator was determined by analyzing changes (ΔRFU) in the RFU for 80 seconds after channel stimulation.
Activation effects of the synthesized compounds on BKCa channels were evaluated using cell-based fluorescence assay. NS11021 was used as the positive control. The effects were determined based on the initial rate (vi) of channel activation and the apparent EC50 value obtained from fitting data of the dose-response curve. Here, Vi means change values for 4 seconds at the start of channel opening (vi={RFU(t=24 s)−RFU(t=20 s)}/4 s). […]

T1 sequence (Q12791 whole entry G856D/N859K): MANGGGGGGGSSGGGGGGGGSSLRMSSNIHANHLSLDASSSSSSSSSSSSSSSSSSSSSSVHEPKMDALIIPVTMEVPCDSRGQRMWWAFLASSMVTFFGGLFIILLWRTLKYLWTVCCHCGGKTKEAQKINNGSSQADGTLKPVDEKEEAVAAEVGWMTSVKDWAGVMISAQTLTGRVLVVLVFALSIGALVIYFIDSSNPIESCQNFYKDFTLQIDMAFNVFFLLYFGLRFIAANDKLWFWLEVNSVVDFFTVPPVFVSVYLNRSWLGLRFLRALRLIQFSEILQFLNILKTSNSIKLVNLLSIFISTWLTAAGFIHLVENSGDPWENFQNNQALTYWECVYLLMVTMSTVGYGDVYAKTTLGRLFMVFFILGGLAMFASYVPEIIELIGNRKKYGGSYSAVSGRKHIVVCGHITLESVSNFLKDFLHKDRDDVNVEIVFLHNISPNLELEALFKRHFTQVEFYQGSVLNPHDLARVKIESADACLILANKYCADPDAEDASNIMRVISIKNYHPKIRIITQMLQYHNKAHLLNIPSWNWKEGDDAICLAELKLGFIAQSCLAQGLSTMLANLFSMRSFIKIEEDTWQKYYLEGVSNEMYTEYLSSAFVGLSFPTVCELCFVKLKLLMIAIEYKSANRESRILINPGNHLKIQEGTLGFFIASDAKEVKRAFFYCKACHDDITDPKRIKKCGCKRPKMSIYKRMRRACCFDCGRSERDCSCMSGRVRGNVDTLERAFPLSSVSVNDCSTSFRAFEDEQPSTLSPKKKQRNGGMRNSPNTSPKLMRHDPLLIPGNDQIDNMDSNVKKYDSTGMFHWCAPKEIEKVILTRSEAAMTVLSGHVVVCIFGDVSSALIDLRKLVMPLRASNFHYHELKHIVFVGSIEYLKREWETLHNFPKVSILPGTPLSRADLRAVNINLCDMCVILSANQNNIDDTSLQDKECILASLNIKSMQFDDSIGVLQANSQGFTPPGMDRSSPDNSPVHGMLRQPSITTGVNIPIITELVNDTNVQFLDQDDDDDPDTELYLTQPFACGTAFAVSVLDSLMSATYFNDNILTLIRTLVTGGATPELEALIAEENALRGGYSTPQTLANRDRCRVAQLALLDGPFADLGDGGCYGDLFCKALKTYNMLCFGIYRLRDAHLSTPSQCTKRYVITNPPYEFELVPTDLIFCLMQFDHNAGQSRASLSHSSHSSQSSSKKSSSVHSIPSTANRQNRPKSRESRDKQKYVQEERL

Structure (SMILES)	Activity (ΔRFU normalized by activities of LDD175) [1]	activation effect on the BKCa channels at a single concentration [2]
O=C(O)c1ccc(Cl)c2c1[nH]c1c3ccc(C(F)(F)F)cc3oc12 [LDD175, reference compound]	1.00	significant activation effects
Cc1ccc(NC(=O)c2sc(=S)n3c2[nH]c(=O)c2cc(C)ccc23)c(C)c1 [TTQC-31, N-(2,4-dimethylphenyl)-7-methyl-5-oxo-1-thioxo-4,5-dihydro-1H-thiazolo[3,4-a]quinazoline-3-carboxamide]	0.34	
O=C(Nc1ccc(Br)cc1F)c1sc(=S)n2c1[nH]c(=O)c1ccc(Cl)cc12 [TTQC-26, N-(4-bromo-2-fluorophenyl)-8-chloro-5-oxo-1-thioxo-4,5-dihydro-1H-thiazolo[3,4-a]quinazoline-3-carboxamide]	0.49	
COc1ccc(OC)c(NC(=O)c2sc(=S)n3c2[nH]c(=O)c2cc(C)ccc23)c1 [TTQC-18, N-(2,5-dimethoxyphenyl)-7-methyl-5-oxo-1-thioxo-4,5-dihydro-1H-thiazolo[3,4-a]quinazoline-3-carboxamide]	0.63	
O=C(c1sc(=S)n2c1[nH]c(=O)c1cc(Br)ccc12)N1CCCCC1 [TTQC-30, 7-bromo-3-(piperidine-1-carbonyl)-1-thioxo-1H-thiazolo[3,4-a]quinazolin-5(4H)-one]	0.37	
CCc1ccccc1NC(=O)c1sc(=S)n2c1[nH]c(=O)c1ccc(Cl)cc12 [TTQC-4, 8-chloro-N-(2-ethylphenyl)-5-oxo-1-thioxo-4,5-dihydro-1H-thiazolo[3,4-a]quinazoline-3-carboxamide]	0.95	
COC(=O)c1ccc2c(=O)[nH]c3c(C(=O)Nc4ccc(F)cc4F)sc(=S)n3c2c1 [TTQC-13, methyl 3-((2,4-difluorophenyl)carbamoyl)-5-oxo-1-thioxo-4,5-dihydro-1H-thiazolo[3,4-a]quinazoline-8-carboxylate]	0.79	
Cc1ccc(CNC(=O)c2sc(=S)n3c2[nH]c(=O)c2cc(Br)ccc23)cc1 [TTQC-14, 7-bromo-N-(4-methylbenzyl)-5-oxo-1-thioxo-4,5-dihydro-1H-thiazolo[3,4-a]quinazoline-3-carboxamide]	0.76	
COc1ccccc1NC(=O)c1sc(=S)n2c1[nH]c(=O)c1cc(Cl)ccc12 [TTQC-5, 7-chloro-N-(2-methoxyphenyl)-5-oxo-1-thioxo-4,5-dihydro-1H-thiazolo[3,4-a]quinazoline-3-carboxamide]	0.90	
CCc1ccc(NC(=O)c2sc(=S)n3c2[nH]c(=O)c2cc(Br)ccc23)cc1 [TTQC-32, 7-bromo-N-(4-ethylphenyl)-5-oxo-1-thioxo-4,5-dihydro-1H-thiazolo[3,4-a]quinazoline-3-carboxamide]	0.34	
Cc1ccc2c(c1)c(=O)[nH]c1c(C(=O)Nc3cc(Cl)ccc3C)sc(=S)n12 [TTQC-7, N-(5-chloro-2-methylphenyl)-7-methyl-5-oxo-1-thioxo-4,5-dihydro-1H-thiazolo[3,4-a]quinazoline-3-carboxamide]	0.89	
COc1ccccc1NC(=O)c1sc(=S)n2c1[nH]c(=O)c1cc3c(cc12)OCO3 [TTQC-24, N-(2-methoxyphenyl)-5-oxo-1-thioxo-4,5-dihydro-1H-[1,3]dioxolo[4,5-g]thiazolo[3,4-a]quinazoline-3-carboxamide]	0.51	
CCOc1ccccc1NC(=O)c1sc(=S)n2c1[nH]c(=O)c1cc(Cl)ccc12 [TTQC-28, 7-chloro-N-(2-ethoxyphenyl)-5-oxo-1-thioxo-4,5-dihydro-1H-thiazolo[3,4-a]quinazoline-3-carboxamide]	0.45	
Cc1ccc2c(c1)c(=O)[nH]c1c(C(=O)Nc3ccccc3C)sc(=S)n12 [TTQC-11, 7-methyl-5-oxo-1-thioxo-N-(o-tolyl)-4,5-dihydro-1H-thiazolo[3,4-a]quinazoline-3-carboxamide]	0.82	
CC(C)NC(=O)c1sc(=S)n2c1[nH]c(=O)c1cc(Br)ccc12 [TTQC-6, 7-bromo-N-isopropyl-5-oxo-1-thioxo-4,5-dihydro-1H-thiazolo[3,4-a]quinazoline-3-carboxamide]	0.90	
CNC(=O)c1sc(=S)n2c1[nH]c(=O)c1ccc(Cl)cc12 [TTQC-25, 8-chloro-N-methyl-5-oxo-1-thioxo-4,5-dihydro-1H-thiazolo[3,4-a]quinazoline-3-carboxamide]	0.50	
COC(=O)c1ccc2c(=O)[nH]c3c(C(=O)NCc4ccccc4Cl)sc(=S)n3c2c1 [TTQC-8, methyl 3-((2-chlorobenzyl)carbamoyl)-5-oxo-1-thioxo-4,5-dihydro-1H-thiazolo[3,4-a]quinazoline-8-carboxylate]	0.84	
O=C(NCC1CCCO1)c1sc(=S)n2c1[nH]c(=O)c1cc(Cl)ccc12 (stereo not drawn) [TTQC-27, 7-chloro-5-oxo-N-((tetrahydrofuran-2-yl)methyl)-1-thioxo-4,5-dihydro-1H-thiazolo[3,4-a]quinazoline-3-carboxamide]	0.47	
COc1cc2c(=O)[nH]c3c(C(=O)Nc4ccccc4)sc(=S)n3c2cc1OC [TTQC-22, 7,8-dimethoxy-5-oxo-N-phenyl-1-thioxo-4,5-dihydro-1H-thiazolo[3,4-a]quinazoline-3-carboxamide]	0.57	
COc1ccc(CNC(=O)c2sc(=S)n3c2[nH]c(=O)c2ccc(Cl)cc23)cc1 [TTQC-33, 8-chloro-N-(4-methoxybenzyl)-5-oxo-1-thioxo-4,5-dihydro-1H-thiazolo[3,4-a]quinazoline-3-carboxamide]	0.34	
COC(=O)c1ccc2c(=O)[nH]c3c(C(=O)Nc4cccc(F)c4)sc(=S)n3c2c1 [TTQC-2, methyl 3-((3-fluorophenyl)carbamoyl)-5-oxo-1-thioxo-4,5-dihydro-1H-thiazolo[3,4-a]quinazoline-8-carboxylate]	0.99	
COc1cccc(CNC(=O)c2sc(=S)n3c2[nH]c(=O)c2ccc(Cl)cc23)c1 [TTQC-29, 8-chloro-N-(3-methoxybenzyl)-5-oxo-1-thioxo-4,5-dihydro-1H-thiazolo[3,4-a]quinazoline-3-carboxamide]	0.45	
O=C(NC1CCCC1)c1sc(=S)n2c1[nH]c(=O)c1ccc(Cl)cc12 [TTQC-23, 8-chloro-N-cyclopentyl-5-oxo-1-thioxo-4,5-dihydro-1H-thiazolo[3,4-a]quinazoline-3-carboxamide]	0.55	
Cc1ccc(Cl)cc1NC(=O)c1sc(=S)n2c1[nH]c(=O)c1cc3c(cc12)OCO3 [TTQC-12, N-(5-chloro-2-methylphenyl)-5-oxo-1-thioxo-4,5-dihydro-1H-[1,3]dioxolo[4,5-g]thiazolo[3,4-a]quinazoline-3-carboxamide]	0.81	
Cc1ccc(NC(=O)c2sc(=S)n3c2[nH]c(=O)c2cc(Br)ccc23)c(C)c1 [TTQC-10, 7-bromo-N-(2,4-dimethylphenyl)-5-oxo-1-thioxo-4,5-dihydro-1H-thiazolo[3,4-a]quinazoline-3-carboxamide]	0.83	
O=C(NCc1ccccc1Cl)c1sc(=S)n2c1[nH]c(=O)c1cc(Cl)ccc12 [TTQC-21, 7-chloro-N-(2-chlorobenzyl)-5-oxo-1-thioxo-4,5-dihydro-1H-thiazolo[3,4-a]quinazoline-3-carboxamide]	0.60	
O=C(NCc1ccccc1Cl)c1sc(=S)n2c1[nH]c(=O)c1cc(Br)ccc12 [TTQC-20, 7-bromo-N-(2-chlorobenzyl)-5-oxo-1-thioxo-4,5-dihydro-1H-thiazolo[3,4-a]quinazoline-3-carboxamide]	0.62	
COc1ccc(OC)c(NC(=O)c2sc(=S)n3c2[nH]c(=O)c2cc(Br)ccc23)c1 [TTQC-15, 7-bromo-N-(2,5-dimethoxyphenyl)-5-oxo-1-thioxo-4,5-dihydro-1H-thiazolo[3,4-a]quinazoline-3-carboxamide]	0.71	
COc1cc2c(=O)[nH]c3c(C(=O)Nc4cc(Cl)ccc4C)sc(=S)n3c2cc1OC [TTQC-17, N-(5-chloro-2-methylphenyl)-7,8-dimethoxy-5-oxo-1-thioxo-4,5-dihydro-1H-thiazolo[3,4-a]quinazoline-3-carboxamide]	0.64	

Reference: patent publication US20240398813A1, “PHARMACEUTICAL COMPOSITION FOR PREVENTING OR TREATING OVERACTIVE BLADDER” (GWANGJU INSTITUTE OF SCIENCE AND TECHNOLOGY, priority 2021, published 2024)
